Experimental data published in patent US20230017045A1, “PYRIDINE AND PYRIMIDINE CARBOXYLATE HERBICIDES AND METHODS OF USE THEREOF” (Dow AgroSciences LLC, priority 2017, published 2023).

System: test plant species
Assay: Post-emergent herbicidal activity test (greenhouse, foliar spray, visual growth reduction)
Assay type: in vivo
Settings: post-emergence, 336 h, ECHCG: barnyardgrass (Echinochloa crus-galli), 140 g ai/ha, 14 days after application, read-out: Visual Growth Reduction (%) 14 Days After Application, ECHCG
Summary of the method: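 Seedlings were raised 7-21 d in a greenhouse under a 15 h photoperiod until the first or second true leaf. Each compound, dissolved in acetone:DMSO 97:3 and diluted into a surfactant-containing spray mixture, was then applied at 187 L/ha. Plants were subirrigated, and growth reduction was scored visually at 14 d.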

`COC(=O)c1nc(-c2ccc3ccsc3c2F)c(F)cc1Cl` [F266, Methyl 3-chloro-5-fluoro-6-(7-fluorobenzo[b]thiophen-6-yl)picolinate] and `COC(=O)c1nc(-c2cc(F)c(OC)cc2F)ccc1Cl` [F291, Methyl 3-chloro-6-(2,5-difluoro-4-methoxyphenyl) picolinate] fall in the same range of pest or weed control at 140 g/ha: 0 to 29% for the first, 0 to 29% for the second.

Compound `O=C(O)c1nc(-c2cc3c(cc2F)OC(F)(F)O3)c(F)cc1Cl` [F334, 3-Chloro-5-fluoro-6-(2,2,6-trifluorobenzo[d][1,3]dioxol-5-yl)picolinic acid] has a pest or weed control at 140 g/ha of 75 to 84%.

Same assay, conditions: post-emergence, 336 h, IPOHE: ivy-leaf morning glory (Ipomoea hederacea), 140 g ai/ha, 14 days after application, read-out: Visual Growth Reduction (%) 14 Days After Application, IPOHE

`COC(=O)c1nc(-c2ccc3ccsc3c2F)c(F)cc1Cl` [F266, Methyl 3-chloro-5-fluoro-6-(7-fluorobenzo[b]thiophen-6-yl)picolinate] and `COC(=O)c1nc(-c2cc(F)c(OC)cc2F)ccc1Cl` [F291, Methyl 3-chloro-6-(2,5-difluoro-4-methoxyphenyl) picolinate] fall in the same range of pest or weed control at 140 g/ha: 0 to 29% for the first, 0 to 29% for the second.

In the case of `O=C(O)c1nc(-c2cc3c(cc2F)OC(F)(F)O3)c(F)cc1Cl` [F334, 3-Chloro-5-fluoro-6-(2,2,6-trifluorobenzo[d][1,3]dioxol-5-yl)picolinic acid], the pest or weed control at 140 g/ha was 95 to 100%.

Same assay, conditions: post-emergence, 336 h, KCHSC: kochia (Bassia scoparia), 140 g ai/ha, 14 days after application, read-out: Visual Growth Reduction (%) 14 Days After Application, KCHSC

`COC(=O)c1nc(-c2ccc3ccsc3c2F)c(F)cc1Cl` [F266, Methyl 3-chloro-5-fluoro-6-(7-fluorobenzo[b]thiophen-6-yl)picolinate] and `COC(=O)c1nc(-c2cc(F)c(OC)cc2F)ccc1Cl` [F291, Methyl 3-chloro-6-(2,5-difluoro-4-methoxyphenyl) picolinate] fall in the same range of pest or weed control at 140 g/ha: 0 to 29% for the first, 0 to 29% for the second.

In the case of `O=C(O)c1nc(-c2cc3c(cc2F)OC(F)(F)O3)c(F)cc1Cl` [F334, 3-Chloro-5-fluoro-6-(2,2,6-trifluorobenzo[d][1,3]dioxol-5-yl)picolinic acid], the pest or weed control at 140 g/ha was 60 to 74%.

Same assay, conditions: post-emergence, 336 h, ORYSA: rice (Oryza sativa), 140 g ai/ha, 14 days after application, read-out: Visual Growth Reduction (%) 14 Days After Application, ORYSA

`COC(=O)c1nc(-c2ccc3ccsc3c2F)c(F)cc1Cl` [F266, Methyl 3-chloro-5-fluoro-6-(7-fluorobenzo[b]thiophen-6-yl)picolinate] and `COC(=O)c1nc(-c2cc(F)c(OC)cc2F)ccc1Cl` [F291, Methyl 3-chloro-6-(2,5-difluoro-4-methoxyphenyl) picolinate] fall in the same range of pest or weed control at 140 g/ha: 0 to 29% for the first, 0 to 29% for the second.

Work on `O=C(O)c1nc(-c2cc3c(cc2F)OC(F)(F)O3)c(F)cc1Cl` [F334, 3-Chloro-5-fluoro-6-(2,2,6-trifluorobenzo[d][1,3]dioxol-5-yl)picolinic acid] yielded a pest or weed control at 140 g/ha of 45 to 59%.

Same assay, conditions: post-emergence, 336 h, SETFA: giant foxtail (Setaria faberi), 140 g ai/ha, 14 days after application, read-out: Visual Growth Reduction (%) 14 Days After Application, SETFA

`COC(=O)c1nc(-c2ccc3ccsc3c2F)c(F)cc1Cl` [F266, Methyl 3-chloro-5-fluoro-6-(7-fluorobenzo[b]thiophen-6-yl)picolinate] and `COC(=O)c1nc(-c2cc(F)c(OC)cc2F)ccc1Cl` [F291, Methyl 3-chloro-6-(2,5-difluoro-4-methoxyphenyl) picolinate] fall in the same range of pest or weed control at 140 g/ha: 0 to 29% for the first, 0 to 29% for the second.

Work on `O=C(O)c1nc(-c2cc3c(cc2F)OC(F)(F)O3)c(F)cc1Cl` [F334, 3-Chloro-5-fluoro-6-(2,2,6-trifluorobenzo[d][1,3]dioxol-5-yl)picolinic acid] yielded a pest or weed control at 140 g/ha of 75 to 84%.

Same assay, conditions: post-emergence, 336 h, SORVU: grain sorghum (Sorghum vulgare), 140 g ai/ha, 14 days after application, read-out: Visual Growth Reduction (%) 14 Days After Application, SORVU

`COC(=O)c1nc(-c2ccc3ccsc3c2F)c(F)cc1Cl` [F266, Methyl 3-chloro-5-fluoro-6-(7-fluorobenzo[b]thiophen-6-yl)picolinate] and `COC(=O)c1nc(-c2cc(F)c(OC)cc2F)ccc1Cl` [F291, Methyl 3-chloro-6-(2,5-difluoro-4-methoxyphenyl) picolinate] fall in the same range of pest or weed control at 140 g/ha: 0 to 29% for the first, 0 to 29% for the second.

In the case of `O=C(O)c1nc(-c2cc3c(cc2F)OC(F)(F)O3)c(F)cc1Cl` [F334, 3-Chloro-5-fluoro-6-(2,2,6-trifluorobenzo[d][1,3]dioxol-5-yl)picolinic acid], the pest or weed control at 140 g/ha was 95 to 100%.

Same assay, conditions: post-emergence, 336 h, STEME: common chickweed (Stellaria media), 140 g ai/ha, 14 days after application, read-out: Visual Growth Reduction (%) 14 Days After Application, STEME

`COC(=O)c1nc(-c2ccc3ccsc3c2F)c(F)cc1Cl` [F266, Methyl 3-chloro-5-fluoro-6-(7-fluorobenzo[b]thiophen-6-yl)picolinate] and `COC(=O)c1nc(-c2cc(F)c(OC)cc2F)ccc1Cl` [F291, Methyl 3-chloro-6-(2,5-difluoro-4-methoxyphenyl) picolinate] fall in the same range of pest or weed control at 140 g/ha: 0 to 29% for the first, 0 to 29% for the second.

With `O=C(O)c1nc(-c2cc3c(cc2F)OC(F)(F)O3)c(F)cc1Cl` [F334, 3-Chloro-5-fluoro-6-(2,2,6-trifluorobenzo[d][1,3]dioxol-5-yl)picolinic acid] the pest or weed control at 140 g/ha was 0 to 29%.

Same assay, conditions: post-emergence, 336 h, TRZAS: wheat, spring (Triticum aestivum), 140 g ai/ha, 14 days after application, read-out: Visual Growth Reduction (%) 14 Days After Application, TRZAS

`COC(=O)c1nc(-c2ccc3ccsc3c2F)c(F)cc1Cl` [F266, Methyl 3-chloro-5-fluoro-6-(7-fluorobenzo[b]thiophen-6-yl)picolinate] and `COC(=O)c1nc(-c2cc(F)c(OC)cc2F)ccc1Cl` [F291, Methyl 3-chloro-6-(2,5-difluoro-4-methoxyphenyl) picolinate] fall in the same range of pest or weed control at 140 g/ha: 0 to 29% for the first, 0 to 29% for the second.

With `O=C(O)c1nc(-c2cc3c(cc2F)OC(F)(F)O3)c(F)cc1Cl` [F334, 3-Chloro-5-fluoro-6-(2,2,6-trifluorobenzo[d][1,3]dioxol-5-yl)picolinic acid] the pest or weed control at 140 g/ha was 75 to 84%.

Same assay, conditions: post-emergence, 336 h, blackgrass (Alopecurus myosuroides), 14 Days After Application, 140 g ai/ha, read-out: Visual Growth Reduction (%) ALOMY

`COC(=O)c1nc(-c2ccc3ccsc3c2F)c(F)cc1Cl` [F266, Methyl 3-chloro-5-fluoro-6-(7-fluorobenzo[b]thiophen-6-yl)picolinate] and `COC(=O)c1nc(-c2cc(F)c(OC)cc2F)ccc1Cl` [F291, Methyl 3-chloro-6-(2,5-difluoro-4-methoxyphenyl) picolinate] fall in the same range of pest or weed control at 140 g/ha: 0 to 29% for the first, 0 to 29% for the second.

`O=C(O)c1nc(-c2cc3c(cc2F)OC(F)(F)O3)c(F)cc1Cl` [F334, 3-Chloro-5-fluoro-6-(2,2,6-trifluorobenzo[d][1,3]dioxol-5-yl)picolinic acid] was tested, and the pest or weed control at 140 g/ha was 75 to 84%.

Same assay, conditions: post-emergence, 336 h, canada thistle (Cirsium arvense), 14 Days After Application, 140 g ai/ha, read-out: Visual Growth Reduction (%) CIRAR

First: COC(=O)c1nc(-c2ccc3ccsc3c2F)c(F)cc1Cl [F266, Methyl 3-chloro-5-fluoro-6-(7-fluorobenzo[b]thiophen-6-yl)picolinate]
Second: COC(=O)c1nc(-c2cc(F)c(OC)cc2F)ccc1Cl [F291, Methyl 3-chloro-6-(2,5-difluoro-4-methoxyphenyl) picolinate]
The pest or weed control at 140 g/ha of the first is lower: 0 to 29% for the first, 30 to 44% for the second.

Same assay, conditions: post-emergence, 336 h, crabgrass (Digitaria sanguinalis), 14 Days After Application, 140 g ai/ha, read-out: Visual Growth Reduction (%) DIGSA

`COC(=O)c1nc(-c2ccc3ccsc3c2F)c(F)cc1Cl` [F266, Methyl 3-chloro-5-fluoro-6-(7-fluorobenzo[b]thiophen-6-yl)picolinate] and `COC(=O)c1nc(-c2cc(F)c(OC)cc2F)ccc1Cl` [F291, Methyl 3-chloro-6-(2,5-difluoro-4-methoxyphenyl) picolinate] fall in the same range of pest or weed control at 140 g/ha: 0 to 29% for the first, 0 to 29% for the second.

`O=C(O)c1nc(-c2cc3c(cc2F)OC(F)(F)O3)c(F)cc1Cl` [F334, 3-Chloro-5-fluoro-6-(2,2,6-trifluorobenzo[d][1,3]dioxol-5-yl)picolinic acid] was tested, and the pest or weed control at 140 g/ha was 95 to 100%.

Same assay, conditions: post-emergence, 336 h, lambsquarters (Chenopodium album), 14 Days After Application, 140 g ai/ha, read-out: Visual Growth Reduction (%) CHEAL

First: COC(=O)c1nc(-c2ccc3ccsc3c2F)c(F)cc1Cl [F266, Methyl 3-chloro-5-fluoro-6-(7-fluorobenzo[b]thiophen-6-yl)picolinate]
Second: COC(=O)c1nc(-c2cc(F)c(OC)cc2F)ccc1Cl [F291, Methyl 3-chloro-6-(2,5-difluoro-4-methoxyphenyl) picolinate]
The pest or weed control at 140 g/ha of the first is lower: 0 to 29% for the first, 45 to 59% for the second.

Work on `O=C(O)c1nc(-c2cc3c(cc2F)OC(F)(F)O3)c(F)cc1Cl` [F334, 3-Chloro-5-fluoro-6-(2,2,6-trifluorobenzo[d][1,3]dioxol-5-yl)picolinic acid] yielded a pest or weed control at 140 g/ha of 75 to 84%.

Same assay, conditions: post-emergence, 336 h, redroot pigweed (Amaranthus retroflexus), 14 Days After Application, 140 g ai/ha, read-out: Visual Growth Reduction (%) AMARE

`COC(=O)c1nc(-c2ccc3ccsc3c2F)c(F)cc1Cl` [F266, Methyl 3-chloro-5-fluoro-6-(7-fluorobenzo[b]thiophen-6-yl)picolinate] and `COC(=O)c1nc(-c2cc(F)c(OC)cc2F)ccc1Cl` [F291, Methyl 3-chloro-6-(2,5-difluoro-4-methoxyphenyl) picolinate] fall in the same range of pest or weed control at 140 g/ha: 0 to 29% for the first, 0 to 29% for the second.

`O=C(O)c1nc(-c2cc3c(cc2F)OC(F)(F)O3)c(F)cc1Cl` [F334, 3-Chloro-5-fluoro-6-(2,2,6-trifluorobenzo[d][1,3]dioxol-5-yl)picolinic acid] gave a pest or weed control at 140 g/ha of 75 to 84%.

Same assay, conditions: post-emergence, 336 h, wild oat (Avena fatua), 14 Days After Application, 140 g ai/ha, read-out: Visual Growth Reduction (%) AVEFA

`COC(=O)c1nc(-c2ccc3ccsc3c2F)c(F)cc1Cl` [F266, Methyl 3-chloro-5-fluoro-6-(7-fluorobenzo[b]thiophen-6-yl)picolinate] and `COC(=O)c1nc(-c2cc(F)c(OC)cc2F)ccc1Cl` [F291, Methyl 3-chloro-6-(2,5-difluoro-4-methoxyphenyl) picolinate] fall in the same range of pest or weed control at 140 g/ha: 0 to 29% for the first, 0 to 29% for the second.

`O=C(O)c1nc(-c2cc3c(cc2F)OC(F)(F)O3)c(F)cc1Cl` [F334, 3-Chloro-5-fluoro-6-(2,2,6-trifluorobenzo[d][1,3]dioxol-5-yl)picolinic acid] showed a pest or weed control at 140 g/ha of 60 to 74%.

Same assay, conditions: post-emergence, 336 h, yellow nutsedge (Cyperus esculentus), 14 Days After Application, 140 g ai/ha, read-out: Visual Growth Reduction (%) CYPES

`COC(=O)c1nc(-c2ccc3ccsc3c2F)c(F)cc1Cl` [F266, Methyl 3-chloro-5-fluoro-6-(7-fluorobenzo[b]thiophen-6-yl)picolinate] and `COC(=O)c1nc(-c2cc(F)c(OC)cc2F)ccc1Cl` [F291, Methyl 3-chloro-6-(2,5-difluoro-4-methoxyphenyl) picolinate] fall in the same range of pest or weed control at 140 g/ha: 0 to 29% for the first, 0 to 29% for the second.

`O=C(O)c1nc(-c2cc3c(cc2F)OC(F)(F)O3)c(F)cc1Cl` [F334, 3-Chloro-5-fluoro-6-(2,2,6-trifluorobenzo[d][1,3]dioxol-5-yl)picolinic acid] was tested, and the pest or weed control at 140 g/ha was 60 to 74%.
